Measurements reported in patent US20030013658A1, “Small peptides and methods for treatment of asthma and inflammation” (Hisatek, LLC, priority 1997, published 2003).

Experiments:
Format in all cases: in vivo
[1] = test system: OVA-sensitized/challenged mice; test: OVA-induced bronchial asthma mouse model (Standard/Resolution protocols, 1-3 month), airway eosinophils and mucus plugs
Excerpt: The OVA-induced Bronchial Asthma Mouse Model for Inhibition of Mast Cell Degranulation
Reagents: Crystalline OVA was obtained from Pierce Chem. Co. (Rockford, Ill.) aluminum potassium sulfate (alum) from Sigma Chem. Co. (St. Louis, Mo.), pyrogen-free distilled water from Baxter, Healthcare Corporation (Deerfield, Ill.), 0.9% sodium chloride (normal saline) from Lymphomed (Deerfield, Ill.) and Trappsol™ HPB-L100 (aqueous hydroxypropyl beta cyclodextrin; 45 wt/vol % aqueous solution) from Cyclodextrin Technologies Development, Inc. (Gainesville, Fla.). The OVA (500 μg/ml in normal saline) was mixed with equal volumes of 10% (wt/vol) alum in distilled water. The mixture (pH 6.5 using 10 N NaOH) after incubation for 60 minutes at room temperature underwent centrifugation at 750 g for 5 minutes; the pellet was resuspended to the original volume in distilled water and used within one hour.
The selective 5-lipoxtgenase inhibitor, Zileuton (N-[1-benzo[b]thien-2-ylethyl]-N-hydroxyurea; J. Pharmacol Exp Ther. 1991; 256: 929-937), was kindly provided by Drs. Bell and George W. Carter (Abbott Laboratories, Abbott Part, Ill.). Zileuton was dissolved in Trappsol.™. Histatek, Inc. (Seattle, Wash.) provided the mast cell degranulation inhibitor, f-Met-Leu-Phe-Phe (“HK-X”).
Female BALB/c […] (6-8 wk of age at purchase; D and K, Seattle Wash.) were housed under conventional conditions for the studies.
Allergen Immunization/Challenge Protocols: Mice received an i.p. injection of 0.2 ml (100 μg) of OVA with alum on the different protocols of Standard (FIG. 5A) and Resolution (FIG. 5B) (J. Exp Med. 1996; 184: 1483-1494). According to the different protocols, mice were anesthetized with 0.2 ml i.p. of ketamine (0.44 mg/ml)/xylazine (6.3 mg/ml) in normal saline before receiving an intranasal (i.n.) does of 100 μg OVA in 0.05 ml normal saline and an i.n. dose of 50 μg OVA in 0.05 ml normal saline separately on different days. Two control groups were used. Accordingly, the first group received normal saline with alum i.p. and normal saline without alum i.n.; the second group received OVA with alum i.p., OVA without alum i.n., and normal saline, alone.
The trachea and left lung (the right lung is used for bronchoalveolar lavage (“BAL”)) were obtained and fixed in 10% neutral formaldehyde solution at room temperature for 6˜15 h. After being embedded in paraffin, the tissues were cut into 5-um sections and processed with the different staining or immunolabling further. Discombe's eosinophil staining was used for counting the cell numbers with the counterstain of methylene blue. The eosinophil number per unit airway area (2,200 μm^2) was determined by morphometry (J. Pathol. 1992; 166: 395-404; Am Rev Respir Dis. 1993; 147:448-456). Fibrosis was identified with the Masson's trichrome staining. Airway mucus was identified by the following staining method: methylene blue, hematoxylin and eosin, mucicarmine, alcian blue, and alcian blue/periodic acid-Schiff (PAS) reaction (Troyer, H., “Carbohydrates” in Principles and Techniques of Histochemistry, Little, Brown and Company, Boston, Mass., 1980: 89-121; Sheehan, D. C., et al., “Carbohydrates” in Theory and Practice of Histotechnology, Battle Press, Columbus, Ohio, 1980: 159-179) Mucin was stained with mucicarmine solution; metanil yellow counterstain was employed. Acidic mucin and sulfated mucosubstances were stained with alcian blue, pH 2.5; nuclear fast red counterstain was used. Neutral and acidic mucosubstances were identified by alcian blue, pH 2.5, and PAS reaction. The degree of mucus plugging of the airways (0.5-0.8 mm in diameter) was also assessed by morphometry. The percent occlusion of airway diameter by mucus was classified on a semiquantitative scale from 0 to 4+ as described in Figure Legends. The histologic and morphometric analyses were performed by individuals blinded to the protocol design. […]

[2] = test system: OVA-sensitized/challenged mice; test: OVA allergen-induced airway inflammation mouse model, 28-day protocol, HK-X i.n. before each challenge; settings: p<0.004; FIG. 11
Excerpt: The above-described murine model reproduces key features of human asthma. Late-phase allergen-specific pulmonary disease was induced in normal BALB/c mice using ovalbumin (OVA) as allergen. One protocol includes immunization of mice with i.p. OVA on […] and 14, and intranasal (i.n.) administration of OVA on days 14, 25, 26, and 27.
In a mouse model of allergen-induced airway inflammation, the role of mast cell in airway eosinophil infiltration, mucus release, and hyper-responsiveness to methacholine was examined.
Materials were used as described above. Mice received an i.p. injection of 0.2 ml (100 ug) of OVA complexed with aluminum potassium sulfate (alum) on day 0 and 14. On days 14, 25, 26, and 27, mice were anesthetized with 0.2 ml i.p. of ketamine (0.44 mg/ml)/xylazine (6.3 mg/ml) in normal saline before receiving an intranasal (i.n.) dose of 100 ug OVA in 0.05 ml normal saline on days 25, 26, and 27. Lung tissue was obtained 24 hours after the last i.n. challenge on day 28. The control group received normal saline with alum i.p. on days 0 and 14 and normal saline without alum i.n. on days 14, 25, 26, and 27. To assess the effect of HK-X inhibition on OVA induced asthma, HK-X (10 ug/ml) was given i.n. 30 minutes before each i.n challenge on days 25, 26, and 27.
After tying off the left lung at the mainstem bronchus, the right lung was […] three times with 0.4 ml of normal saline, Bronchoalveolar lavage (BAL) fluid cells from a 0.05 ml aliquot of the pooled sample were counted using a hemocytometer and the remaining fluid centrifuged at 4° C. for 10 minutes at 200 g. After resuspension of the cell pellet in normal saline containing 10% BSA, BAL cell smears were made on glass slides. To stain eosinophils, dried slides were stained with Discombe's diluting fluid (0.05% aqueous eosin and 5% (v/v) acetone in distilled water) for 5-8 minutes, rinsed with water for 0.5 minutes and counterstained with 0.07 methylene blue for 2 minutes.
Following BAL, the trachea and left lung (upper and lower lobes) were obtained and fixed in 10% buffered formalin solution at 20° C. for1S hours. After the tissues were processed and embeded in paraffin, the tissues were cut into 5 μm sections and stained with Discombe's solution and counterstained with methylene blue as described above or stained with Hematoxylin and eosin. The eosinophil number per unit airway area (2200 μm^2) was determined by morphometry as previously described. Airway mucus was identified by a variety of staining methods, i.e., methylene blue, Hematoxylin and eosin, mucicarmine, toluidine blue, alcian blue, and alcian blue/periodic acid Schiff (PAS) reaction. Mucin was stained with mucicarmine solution; metanil yellow counterstain was employed. Mucin and sialic acid-rich non-sulfated mucosubstances were stained metachromatically with toluidine blue, pH 4.5. Acidic mucin and sulfated mucosubstances were stained with alcian blue, pH 2.5; nuclear fast red counterstain was used. Neutral and acidic mucosubstances were identified by alcian blue, pH 2.5 and PAS reaction. The degree of mucus plugging of the airways (0.5˜0.8 mm in diameter) also was assessed by morphometry. The percent occlusion of airway diameter by mucus was classified on a semiquantitative scale from 0 to +++++. The histologic and morphometric analyses protocol design were performed by individuals blinded to the protocol design.
Mucus glycoproteins in BAL fluid were assayed by slot blotting and PAS staining as described. Nitrocellulose membranes (0.2 um pore size; Schleicher & Schuell, Keene, N.H.) were wetted in distilled water and then in normal saline before placement in a Minifold II 72-well slot blot apparatus (Schleicher & Schuell). The BAL fluid samples (0.05 ml) and aliquots (0.05-0.75 ml) of a stock solution (2 ug/ml) of human respiratory mucin glycoprotein were blotted onto the nitrocellulose membranes by water suction vacuum, and mucus glycoproteins were visualized by PAS reaction. […]

[3] = test system: OVA-sensitized/challenged mice; test: as above; settings: p=0.0128 compared to OVA without zileuton; data not shown
[4] = test system: mast cell degranulation induced by Compound 48/80; test: Rat skin model: inhibition of Compound 48/80-induced mast cell degranulation (capillary permeability, trypan blue); settings: 0.15 μg Compound 48/80; for % Degranulation: percent mast cell degranulation produced by 48/80, 100 nanomoles peptide
Experimental: The Rat Skin Model for Determination of Inhibition of Mast Cell Degranulation
In this model, the blood plasma of the experimental rat is labeled with the dye trypan blue. This soluble dye is carried in the bloodstream as a passive marker of plasma itself, and is excluded from live cells. Intact blood vessels, including the capillary system, retain this dye under normal circumstances. A compound, which induces degranulation of mast cells (resulting in leukotriene and histamine release), is injected into the skin to simulate allergen-induced degranulation. In these experiments, Compound 48/80 was used for this purpose. In the events following leukotriene and histamine release, capillary permeability is increased, and plasma, dyed blue, leaks from capillaries and dyes the skin surrounding the injection site blue. The area of bluing is a measure of the amount of Compound 48/80 injected.
A compound can be tested for “anti-leukotriene” and/or “anti-histamine” activity by mixing it with Compound 48/80 prior to injection.
The rat skin model was undertaken and validated. Various peptides were tested at a predetermined dose for anti-leukotriene and/or anti-histamine activity. The dose selected allowed a general comparison to f-Met-Leu-Phe, which was standard compound for comparison.
A “dose response” titration was performed for some compounds and compared with the standard compound. Observing serial decreases in the size areas of capillary permeability using serially smaller doses of the putative inhibitory compound validates the inhibition of leukotriene and/or histamine release observed in the initial predetermined dose test.
Reagents were obtained from Sigma or Aldrich, with the exception of ketamine, a veterinary anaesthetic that was obtained from various veterinary suppliers. The rats used were male Sprague-Dawley breed, 220-240 g at time of purchase from B&K International.
For the rat skin reaction, rats were anaesthetized with 0.25 ml 10 mg/ml ketamine. 1.0 ml trypan blue in saline (sterile filtered) was administered in a tail vein, and the back of the rat was shaved. Four intradermal injection sites per rat were used for test and control injections.
Compound 48/80 was prepared as a 1.5 mg/ml stock solution in saline. […] Serial dilutions in saline to working levels were prepared just prior to injection of each rat.
Peptides were prepared as a 23 mM stock solution in DMSO, and stored at −20° C. between experiments. At the time of use, the frozen stock solutions were thawed, and appropriate aliquots added to dilutions of Compound 48/80, along with appropriate amounts of DMSO, to result in the ratio of 5 μl DMSO to 0.1 ml aqueous Compound 48/80.
For injections, 0.1 ml […], +1/− test compounds were injected intradermally into anaesthetized, dyed, and shaved rats. Following a 15 minute incubation, the rats were sacrificed by cervical dislocation and the back skin was evulsed and placed on a light box. An image of the backlit skin was digitized using a CCD video capture camera and compatible hardware/software. The digitized image was analyzed using a scientific graphics analysis software package, and the areas of capillary permeability (bluing) were integrated and digital values were obtained for further analysis.
A dose response curve was generated using Compound 48/80 at various doses from ca. 0.01 μg through ca. 15 μg. […] A dose of 0.15 μg of Compound 48/80 was selected for conducting further tests.
Several f-Met-Leu peptides were tested for inhibition of induced degranulation in the rat skin model using 100 nanomoles of the test peptide and a dose of 0.15 μg Compound 48/80. An intrinsic zero-peptide-dose 48/80 control was included in each rat for each experiment, and the % of inhibition was expressed in relative terms to this control (0% inhibition). The percent mast cell degranulation produced by 48/80 was also determined.

Molecule: CC(c1cc2ccccc2s1)N(O)C(N)=O (stereo not shown) [Zileuton, N-[1-benzo[b]thien-2-ylethyl]-N-hydroxyurea, reference compound]
- AIRWAY INFLUX OF EOSINOPHILS (%) ([1]; 1 month): 15.50%
- AIRWAY INFLUX OF EOSINOPHILS (%) ([1]; 2 month): 11.66%
- AIRWAY INFLUX OF EOSINOPHILS (%) ([1]; 3 month): 10.73%
- % of plug of airway ([1]; 28 days): 16%
- PERCENTAGE OF EOSINOPHILS IN AIRWAY TISSUE ([1]; 28 days of treatment): 15.8%
- MUCUS PLUG SCORE IN AIRWAYS ([1]; 28 days, semiquantitative scale 0 to 4+): 1.3
- reduction of airway eosinophils ([1]; through 1-3 month): could reduced eosinophils generally through 1-3 month
- decrease in number of eosinophils in the BAL fluid [2]: 82%
- decrease in eosinophils recovered in the BAL fluid [3]: 89%

Molecule: N-acetyl-Met-Leu-Phe [Example 3]
- % Degranulation [4]: 98%

Molecule: f-Met-Leu-Phe [Example 2, reference compound]
- dose response, inhibition of degranulation induced by Compound 48/80 ([4]; doses of 0 to about 230 nM peptide, FIG. 2 / FIG. 3): Inhibition of degranulation induced by Compound 48/80 was clearly shown
- % Degranulation [4]: 60%

Molecule: f-Met-Leu-Tyr [Example 10]
- % Degranulation [4]: 30%
